Source: US11897862B2 (Gilead Sciences, Inc., priority 2022, dated 2024)

How the values were obtained:
IKZF2 = IKZF2 (Homo sapiens, UniProt Q96SW2+Q9UKS7); assay: HEK293 HiBiT in vitro degradation of IKZF2; type: cell-based; parameters: expressed in transfected cells; conditions: for Dmax: HEK293, HEK293 HiBiT; for DC50: 18-24 hr incubation, normalized to DMSO control, read-out: IKZF2 EC50
Outline: (§1)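 Flp-In T-REx HEK293 stable pools carry a single integrated copy of C-terminal HiBiT-tagged IKZF1, IKZF2 or SALL4 under a tetracycline operator, induced overnight at 37 °C with doxycycline ([…] final). Cells were then treated with serially diluted compounds for 18-24 h. Nano-Glo lytic luminescence gave EC50 and Dmax.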

IKZF1 = molecular target: T1, IKZF1 (Homo sapiens, UniProt Q13422+Q96SW2); assay: HEK293 HiBiT in vitro degradation of IKZF1; type: cell-based; conditions: for DC50: 18-24 hr incubation, normalized to DMSO control, read-out: IKZF1 EC50; for Dmax: HEK293, HEK293 HiBiT
T1 construct: expressed in transfected cells
Outline: as §1

[1] = maximum degradation at the highest concentration tested
[2] = HEK293 HiBiT, maximum degradation at the highest concentration tested

T1 sequence (Q13422 whole entry): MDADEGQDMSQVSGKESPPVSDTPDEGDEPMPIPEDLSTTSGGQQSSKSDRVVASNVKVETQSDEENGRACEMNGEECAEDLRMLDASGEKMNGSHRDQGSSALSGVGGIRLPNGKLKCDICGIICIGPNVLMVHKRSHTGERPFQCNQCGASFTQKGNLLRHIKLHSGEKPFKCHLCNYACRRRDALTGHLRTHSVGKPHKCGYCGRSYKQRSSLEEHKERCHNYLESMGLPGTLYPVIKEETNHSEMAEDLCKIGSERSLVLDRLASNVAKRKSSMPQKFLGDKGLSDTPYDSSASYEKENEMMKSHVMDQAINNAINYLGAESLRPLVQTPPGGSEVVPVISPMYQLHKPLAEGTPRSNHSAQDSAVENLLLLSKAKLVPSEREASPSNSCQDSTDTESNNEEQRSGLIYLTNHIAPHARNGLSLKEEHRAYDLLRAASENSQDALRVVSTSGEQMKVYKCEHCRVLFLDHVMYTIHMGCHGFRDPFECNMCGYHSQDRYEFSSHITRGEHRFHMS
T1 sequence (Q96SW2 whole entry): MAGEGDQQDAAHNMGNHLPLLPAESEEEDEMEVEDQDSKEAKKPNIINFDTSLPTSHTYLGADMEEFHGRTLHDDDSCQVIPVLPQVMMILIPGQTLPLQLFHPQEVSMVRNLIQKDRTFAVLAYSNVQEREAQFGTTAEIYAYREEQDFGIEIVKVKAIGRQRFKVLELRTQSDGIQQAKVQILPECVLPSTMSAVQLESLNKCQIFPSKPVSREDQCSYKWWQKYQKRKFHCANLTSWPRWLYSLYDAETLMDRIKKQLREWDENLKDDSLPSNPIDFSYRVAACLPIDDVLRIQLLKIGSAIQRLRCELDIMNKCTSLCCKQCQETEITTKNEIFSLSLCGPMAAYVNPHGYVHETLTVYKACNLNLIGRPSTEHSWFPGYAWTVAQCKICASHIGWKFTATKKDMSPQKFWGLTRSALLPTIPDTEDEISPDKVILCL
T1 sequence (Q16531 whole entry partner): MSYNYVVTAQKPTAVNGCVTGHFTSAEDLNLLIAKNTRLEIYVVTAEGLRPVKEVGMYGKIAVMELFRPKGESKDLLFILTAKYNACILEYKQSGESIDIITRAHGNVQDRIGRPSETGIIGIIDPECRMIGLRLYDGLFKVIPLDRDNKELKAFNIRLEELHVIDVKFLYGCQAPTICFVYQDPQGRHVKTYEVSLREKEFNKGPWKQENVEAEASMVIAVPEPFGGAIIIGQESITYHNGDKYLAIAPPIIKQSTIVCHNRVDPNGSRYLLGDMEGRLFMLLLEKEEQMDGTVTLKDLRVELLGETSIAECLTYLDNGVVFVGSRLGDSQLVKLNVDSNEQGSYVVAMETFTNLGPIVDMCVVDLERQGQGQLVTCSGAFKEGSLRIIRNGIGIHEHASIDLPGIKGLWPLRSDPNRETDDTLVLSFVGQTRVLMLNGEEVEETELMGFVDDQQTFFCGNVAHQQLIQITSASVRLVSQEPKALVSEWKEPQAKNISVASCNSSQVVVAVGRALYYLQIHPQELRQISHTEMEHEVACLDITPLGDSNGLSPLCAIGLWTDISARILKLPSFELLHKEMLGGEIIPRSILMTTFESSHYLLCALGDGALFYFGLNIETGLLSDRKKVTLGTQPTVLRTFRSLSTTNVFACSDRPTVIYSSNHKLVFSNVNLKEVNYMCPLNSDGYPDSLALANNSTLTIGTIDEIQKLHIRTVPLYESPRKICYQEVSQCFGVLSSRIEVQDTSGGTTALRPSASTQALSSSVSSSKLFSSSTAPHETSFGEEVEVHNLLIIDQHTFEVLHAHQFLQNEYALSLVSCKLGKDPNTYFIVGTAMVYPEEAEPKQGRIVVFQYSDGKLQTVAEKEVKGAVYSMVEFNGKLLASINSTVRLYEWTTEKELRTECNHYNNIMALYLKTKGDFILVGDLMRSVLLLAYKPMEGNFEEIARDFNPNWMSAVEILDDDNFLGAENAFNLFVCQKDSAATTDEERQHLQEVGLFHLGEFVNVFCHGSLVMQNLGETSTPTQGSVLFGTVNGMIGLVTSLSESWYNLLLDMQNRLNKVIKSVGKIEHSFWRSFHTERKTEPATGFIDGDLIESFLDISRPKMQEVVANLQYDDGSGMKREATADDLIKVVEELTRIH
Chain of IKZF2 (Q9UKS7 1-500 isoform Q9UKS7-2): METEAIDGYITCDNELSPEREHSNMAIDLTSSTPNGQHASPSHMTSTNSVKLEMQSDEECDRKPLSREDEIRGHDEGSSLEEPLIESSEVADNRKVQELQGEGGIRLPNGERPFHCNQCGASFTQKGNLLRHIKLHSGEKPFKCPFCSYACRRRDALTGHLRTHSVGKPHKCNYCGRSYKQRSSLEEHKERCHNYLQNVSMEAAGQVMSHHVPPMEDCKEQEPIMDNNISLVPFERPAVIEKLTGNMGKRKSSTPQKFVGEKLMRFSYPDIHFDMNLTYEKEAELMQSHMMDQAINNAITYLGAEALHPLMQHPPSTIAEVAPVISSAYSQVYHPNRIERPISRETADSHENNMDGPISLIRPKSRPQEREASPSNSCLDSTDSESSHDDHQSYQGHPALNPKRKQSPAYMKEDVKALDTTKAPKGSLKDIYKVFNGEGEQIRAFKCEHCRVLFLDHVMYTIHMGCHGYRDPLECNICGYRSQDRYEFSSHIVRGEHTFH
Chain of IKZF2 (Q96SW2 whole entry): as the sequence (Q96SW2 whole entry) above
Chain of IKZF2 (Q16531 whole entry partner): as the sequence (Q16531 whole entry partner) above

| SMILES | Dmax (IKZF2; [1]) | DC50 (IKZF2; HEK293 HiBiT) | DC50 (IKZF1; HEK293 HiBiT) | Dmax (IKZF1; [1]) | IKZF2 Dmax (IKZF2; [2]) | IKZF1 Dmax (IKZF1; [2]) |
| --- | --- | --- | --- | --- | --- | --- |
| CC(c1ccc2c(c1)CN(C1CCC(=O)NC1=O)C2=O)[C@H]1CCCC[C@@H]1NC1CCC(F)(F)CC1 (some centres unmarked) [Example 147] | 75% | 37 nM | > 1000 nM | – | – | – |
| O=C1CCC(N2Cc3c(ccc(C[C@H]4OCCC[C@@H]4NCC4CCC(F)(F)CC4)c3F)C2=O)C(=O)N1 (some centres unmarked) [Example 149] | 71% | 46 nM | 45 nM | 36% | – | – |
| O=C1CCC(N2Cc3c(ccc(C[C@H]4OCCC[C@@H]4NCC4CC(F)(F)C4)c3F)C2=O)C(=O)N1 (some centres unmarked) [Example 150] | 73% | 51 nM | > 500 nM | – | – | – |
| O=C1CCC(N2Cc3c(ccc(C[C@H]4OCCC[C@@H]4NCC4CCC4)c3F)C2=O)C(=O)N1 (some centres unmarked) [Example 152] | 78% | 26 nM | > 500 nM | – | – | – |
| COC1CCC(NC2CCCOC2Cc2ccc3c(c2F)CN(C2CCC(=O)NC2=O)C3=O)CC1 (centres unmarked) [Example 156] | 98% | 6 nM | > 1000 nM | – | – | – |
| O=C1CCC(N2Cc3c(ccc(C[C@H]4OCCC[C@@H]4NC4CC5(CCC5)C4)c3F)C2=O)C(=O)N1 (some centres unmarked) [Example 157] | 92% | 8 nM | 61 nM | 35% | – | – |
| O=C1CCC(N2Cc3c(ccc(C[C@H]4OCCC[C@@H]4NC4CC5(CCCCC5)C4)c3F)C2=O)C(=O)N1 (some centres unmarked) [Example 158] | 91% | 11 nM | 72 nM | 50% | – | – |
| CO[C@@H]1CCC[C@H](Cc2ccc3c(c2)CN(C2CCC(=O)NC2=O)C3=O)[C@H]1NC1CCC(F)(F)CC1 (some centres unmarked) [Example 164] | 83% | 17 nM | > 1000 nM | – | – | – |

Now from value to molecule:

| Dmax (IKZF2; [1]) | DC50 (IKZF2; HEK293 HiBiT) | DC50 (IKZF1; HEK293 HiBiT) | Dmax (IKZF1; [1]) | IKZF2 Dmax (IKZF2; [2]) | IKZF1 Dmax (IKZF1; [2]) | SMILES |
| --- | --- | --- | --- | --- | --- | --- |
| 94% | 33 nM | > 1000 nM | – | – | – | O=C1CCC(N2Cc3cc(C[C@H]4CCCC[C@@H]4NC4COc5ccccc5C4)ccc3C2=O)C(=O)N1 (some centres unmarked) [Example 143] |
| 97% | 7 nM | > 1000 nM | – | – | – | CC1(C)CC(N[C@H]2CCCC[C@@H]2Cc2ccc3c(c2)CN(C2CCC(=O)NC2=O)C3=O)CC(C)(C)C1 (some centres unmarked) [Example 144] |
| 90% | 114 nM | > 500 nM | – | – | – | C[C@@]1(O)CC[C@H](NC2CCC(F)(F)CC2)[C@@H](Cc2ccc3c(c2)CN(C2CCC(=O)NC2=O)C3=O)C1 (some centres unmarked) [Example 154] |
| 88% | 95 nM | > 1000 nM | – | – | – | CC1(C)OCC(N[C@H]2CCCC[C@@H]2Cc2ccc3c(c2)CN(C2CCC(=O)NC2=O)C3=O)CO1 (some centres unmarked) [Example 161] |
| 93% | 58 nM | 226 nM | 42% | – | – | O=C1CCC(N2Cc3cc(C[C@H]4C[C@@H](O)CC[C@@H]4NC4CCC(F)(F)CC4)ccc3C2=O)C(=O)N1 (some centres unmarked) [Example 162] |
| 95% | 14 nM | 328 nM | 45% | – | – | O=C1CCC(N2Cc3cc(C[C@H]4CCC[C@H](O)[C@@H]4NC4CCC(F)(F)CC4)ccc3C2=O)C(=O)N1 (some centres unmarked) [Example 163] |
| 98% | 20 nM | 270 nM | 28% | – | – | O=C1CCC(N2Cc3cc(C[C@H]4CCCC[C@@H]4NC4CCc5cn[nH]c5C4)ccc3C2=O)C(=O)N1 (some centres unmarked) [Example 165] |
| 96% | 23 nM | > 1000 nM | – | – | – | CCCC(CCC)N[C@H]1CCCC[C@@H]1Cc1ccc2c(c1)CN(C1CCC(=O)NC1=O)C2=O (some centres unmarked) [Example 166] |
| 98% | 26 nM | 198 nM | 37% | – | – | O=C1CCC(N2Cc3cc(C[C@H]4CCCC[C@@H]4NC4CCC5(CCO5)CC4)ccc3C2=O)C(=O)N1 (some centres unmarked) [Example 171] |
| – | 19 nM | 203 nM | – | 98% | 28% | O=C1CCC(N2Cc3cc(C[C@H]4CCCC[C@@H]4NC4CCC5(CCO5)CC4)ccc3C2=O)C(=O)N1 (some centres unmarked) [Example 172] |
| 86% | 67 nM | > 1000 nM | – | – | – | O=C1CCC(N2Cc3cc(C[C@H]4CCCC[C@@H]4NCC45CC(c6ccccc6)(C4)C5(F)F)ccc3C2=O)C(=O)N1 (some centres unmarked) [Example 174] |
